Experimental data: PubChem BioAssay AID248 (DTP/NCI, 2004)
“And” between values parts separate entries of the source, which are not always exact repeats. Equal entries are not always repeated. Inconclusive results and toxic doses are left out. Cut-off read from the data, not from the text of the source: active = T/C of 150% or more; inactive = T/C below 125%.

Tested on: L1210 leukemia ip in BDF1 mice, survival T/C
Experiment: NCI In Vivo Anticancer Drug Screen. Data for tumor model L1210 Leukemia (intraperitoneal) in B6D2F1 (BDF1) mice
Conditions: endpoint: mean survival time, higher = longer survival
Summary of the method: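 Value reflects the ratio of survival in compound-treated mice to survival in vehicle-treated controls, with both groups carrying the same transplanted tumor.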

[1] = dose: 30.0 mg/kg/injection, schedule: Q01DX Z (ip), vehicle: carboxymethylcellulose (CMC)
[2] = dose: 50.0 mg/kg/injection, schedule: Q01DX001 (ip), vehicle: saline
[3] = dose: 60.0 mg/kg/injection, schedule: Q01DX Z (ip), vehicle: carboxymethylcellulose (CMC)
[4] = dose: 100.0 mg/kg/injection, schedule: Q01DX001 (ip), vehicle: saline
[5] = dose: 120.0 mg/kg/injection, schedule: Q01DX Z (ip), vehicle: carboxymethylcellulose (CMC)
[6] = dose: 200.0 mg/kg/injection, schedule: Q01DX001 (ip), vehicle: saline
[7] = dose: 240.0 mg/kg/injection, schedule: Q01DX Z (ip), vehicle: carboxymethylcellulose (CMC)
[8] = dose: 100.0 mg/kg/injection, schedule: Q04DX003 (ip), vehicle: saline with Tween-80

Measured: T/C

Fc1ccc(NC(=S)Nc2ccc(F)cc2)cc1
inactive: dose: 15.0 mg/kg/injection, schedule: Q01DX Z (ip), vehicle: carboxymethylcellulose (CMC) 98 % of control | [1] 101 % of control | [2] 117 % of control | [3] 101 % of control and 104 % of control | [4] 113 % of control | [5] 101 % of control and 106 % of control | [6] 120 % of control | [7] 100 % of control | dose: 240.0 mg/kg/injection, schedule: Q01DX Z (oral), vehicle: carboxymethylcellulose (CMC) 95 % of control | dose: 480.0 mg/kg/injection, schedule: Q01DX Z (ip), vehicle: carboxymethylcellulose (CMC) 106 % of control | dose: 480.0 mg/kg/injection, schedule: Q01DX Z (oral), vehicle: carboxymethylcellulose (CMC) 104 % of control | dose: 960.0 mg/kg/injection, schedule: Q01DX Z (oral), vehicle: carboxymethylcellulose (CMC) 107 % of control | dose: 1920.0 mg/kg/injection, schedule: Q01DX Z (oral), vehicle: carboxymethylcellulose (CMC) 100 % of control

CSC(Cl)=C(Cl)Cl
inactive: dose: 25.0 mg/kg/injection, schedule: Q04DX003 (ip), vehicle: saline with Tween-80 101 % of control | dose: 50.0 mg/kg/injection, schedule: Q04DX003 (ip), vehicle: saline with Tween-80 101 % of control | [4] 90 % of control | [8] 97 % of control

Cc1ccc([Si](O)(c2ccc(C)cc2)c2ccc(C)cc2)cc1
inactive: dose: 100.0 mg/kg/injection, schedule: Q01DX001 (ip), vehicle: other 97 % of control | dose: 200.0 mg/kg/injection, schedule: Q01DX001 (ip), vehicle: other 97 % of control | dose: 400.0 mg/kg/injection, schedule: Q01DX001 (ip), vehicle: other 100 % of control

CC(=O)OCCC(C)Nc1ccnc2cc(Cl)ccc12 (stereo not given)
inactive: dose: 20.0 mg/kg/injection, schedule: Q04DX003 (ip), vehicle: saline with Tween-80 92 % of control | dose: 40.0 mg/kg/injection, schedule: Q04DX003 (ip), vehicle: saline with Tween-80 87 % of control

CC(C)c1ccc(/C=N/NC(=S)Nc2ccccc2)cc1
inactive: dose: 100.0 mg/kg/injection, schedule: Q01DX009 (ip), vehicle: Klucel (hydroxypropylcellulose) (HPC) 93 % of control | dose: 200.0 mg/kg/injection, schedule: Q01DX009 (ip), vehicle: Klucel (hydroxypropylcellulose) (HPC) 93 % of control | dose: 400.0 mg/kg/injection, schedule: Q01DX009 (ip), vehicle: Klucel (hydroxypropylcellulose) (HPC) 90 % of control

O=C(O)C1CCC(SSC2CCC(C(=O)O)CC2[N+](=O)[O-])C([N+](=O)[O-])C1 (stereo not given)
inactive: dose: 100.0 mg/kg/injection, schedule: Q04DX002 (ip), vehicle: saline with Tween-80 95 % of control | dose: 200.0 mg/kg/injection, schedule: Q04DX002 (ip), vehicle: saline with Tween-80 103 % of control | dose: 400.0 mg/kg/injection, schedule: Q04DX002 (ip), vehicle: saline with Tween-80 103 % of control

O=C(O)CN1C(=O)NC(C2CC2)(C2CC2)C1=O
inactive: dose: 100.0 mg/kg/injection, schedule: Q04DX003 (ip), vehicle: acetone 100 % of control | dose: 200.0 mg/kg/injection, schedule: Q04DX003 (ip), vehicle: acetone 96 % of control | dose: 400.0 mg/kg/injection, schedule: Q04DX003 (ip), vehicle: acetone 100 % of control

C=CCn1c2ccccc2c2cc3cnccc3c(C)c21
inactive: dose: 6.25 mg/kg/injection, schedule: Q04DX003 (ip), vehicle: Klucel (hydroxypropylcellulose) (HPC) 100 % of control | dose: 12.5 mg/kg/injection, schedule: Q04DX003 (ip), vehicle: Klucel (hydroxypropylcellulose) (HPC) 97 % of control | dose: 25.0 mg/kg/injection, schedule: Q04DX003 (ip), vehicle: Klucel (hydroxypropylcellulose) (HPC) 100 % of control | dose: 100.0 mg/kg/injection, schedule: Q04DX003 (ip), vehicle: Klucel (hydroxypropylcellulose) (HPC) 102 % of control | dose: 200.0 mg/kg/injection, schedule: Q04DX003 (ip), vehicle: Klucel (hydroxypropylcellulose) (HPC) 97 % of control | dose: 400.0 mg/kg/injection, schedule: Q04DX003 (ip), vehicle: Klucel (hydroxypropylcellulose) (HPC) 105 % of control

Cc1cc(-c2ccccc2O)nc(N)n1
inactive: dose: 100.0 mg/kg/injection, schedule: Q04DX002 (ip), vehicle: saline 90 % of control | dose: 200.0 mg/kg/injection, schedule: Q04DX002 (ip), vehicle: saline 94 % of control | dose: 400.0 mg/kg/injection, schedule: Q04DX002 (ip), vehicle: saline 90 % of control

Clc1nc2nc(C3CC3)[nH]c2nc1Cl
inactive: dose: 100.0 mg/kg/injection, schedule: Q01DX009 (ip), vehicle: saline with Tween-80 104 % of control | [8] 97 % of control | dose: 200.0 mg/kg/injection, schedule: Q01DX009 (ip), vehicle: saline with Tween-80 90 % of control | dose: 200.0 mg/kg/injection, schedule: Q04DX003 (ip), vehicle: saline with Tween-80 95 % of control | dose: 400.0 mg/kg/injection, schedule: Q01DX009 (ip), vehicle: saline with Tween-80 111 % of control | dose: 400.0 mg/kg/injection, schedule: Q04DX003 (ip), vehicle: saline with Tween-80 101 % of control

N#Cc1cc(C(N)=O)c(N)nc1SCc1ccccc1
inactive: dose: 50.0 mg/kg/injection, schedule: Q01DX001 (ip), vehicle: Klucel (hydroxypropylcellulose) (HPC) 94 % of control | dose: 100.0 mg/kg/injection, schedule: Q01DX001 (ip), vehicle: Klucel (hydroxypropylcellulose) (HPC) 86 % of control | dose: 200.0 mg/kg/injection, schedule: Q01DX001 (ip), vehicle: Klucel (hydroxypropylcellulose) (HPC) 91 % of control

CC(=O)OCC(OC(C)=O)C(OC(C)=O)C(OC(C)=O)C(COC(=O)c1ccccc1)OC(=O)c1ccccc1 (stereo not given)
inactive: dose: 100.0 mg/kg/injection, schedule: Q01DX001 (ip), vehicle: saline with Tween-80 108 % of control | dose: 200.0 mg/kg/injection, schedule: Q01DX001 (ip), vehicle: saline with Tween-80 89 % of control | dose: 400.0 mg/kg/injection, schedule: Q01DX001 (ip), vehicle: saline with Tween-80 104 % of control

C/C(=N\NS(=O)(=O)c1ccccc1)C(C)C
inactive: dose: 75.0 mg/kg/injection, schedule: Q01DX001 (ip), vehicle: saline 101 % of control | dose: 150.0 mg/kg/injection, schedule: Q01DX001 (ip), vehicle: saline 98 % of control | dose: 300.0 mg/kg/injection, schedule: Q01DX001 (ip), vehicle: saline 96 % of control

CN(CS(=O)(=O)O)c1cc(F)cc(F)c1
inactive: [2] 102 % of control | [4] 102 % of control | [6] 98 % of control | dose: 400.0 mg/kg/injection, schedule: Q01DX001 (ip), vehicle: saline 98 % of control

Nc1ccc(-c2nc3nc(N)nc(N)c3nc2-c2ccc(N)cc2)cc1
inactive: [1] 102 % of control | [3] 95 % of control | [5] 104 % of control | [7] 101 % of control

Cc1cc(=O)[nH]c2c1CCC2
inactive: dose: 50.0 mg/kg/injection, schedule: Q01DX009 (ip), vehicle: saline 92 % of control | dose: 100.0 mg/kg/injection, schedule: Q01DX009 (ip), vehicle: saline 95 % of control | dose: 100.0 mg/kg/injection, schedule: Q04DX003 (ip), vehicle: saline 106 % of control | dose: 200.0 mg/kg/injection, schedule: Q04DX003 (ip), vehicle: saline 108 % of control

CCN(CC)C(=S)SCC(=O)O
inactive: dose: 100.0 mg/kg/injection, schedule: Q04DX003 (ip), vehicle: other 101 % of control | dose: 200.0 mg/kg/injection, schedule: Q04DX003 (ip), vehicle: other 98 % of control | dose: 400.0 mg/kg/injection, schedule: Q04DX003 (ip), vehicle: other 98 % of control
